Laboratory results taken from patent US5834452A, “1- or 6-hydroxylated steroids” (Roussel Uclaf, priority 1996, dated 1998).

Assays:
[1] = target: T1, Human progesterone receptor (HPR) (Homo sapiens, UniProt P06401); test: Relative bond affinity (RBA), recombinant human progestogen receptor, charcoal dextran technique; assay type: binding; conditions: 24 h at 0° C., Progesterone = 100
T1 construct: made in house; host or cells: SF9 insect cells (ATCC CRL1711), baculovirus, lysate supernatant
T1 sequence (P06401 1-933): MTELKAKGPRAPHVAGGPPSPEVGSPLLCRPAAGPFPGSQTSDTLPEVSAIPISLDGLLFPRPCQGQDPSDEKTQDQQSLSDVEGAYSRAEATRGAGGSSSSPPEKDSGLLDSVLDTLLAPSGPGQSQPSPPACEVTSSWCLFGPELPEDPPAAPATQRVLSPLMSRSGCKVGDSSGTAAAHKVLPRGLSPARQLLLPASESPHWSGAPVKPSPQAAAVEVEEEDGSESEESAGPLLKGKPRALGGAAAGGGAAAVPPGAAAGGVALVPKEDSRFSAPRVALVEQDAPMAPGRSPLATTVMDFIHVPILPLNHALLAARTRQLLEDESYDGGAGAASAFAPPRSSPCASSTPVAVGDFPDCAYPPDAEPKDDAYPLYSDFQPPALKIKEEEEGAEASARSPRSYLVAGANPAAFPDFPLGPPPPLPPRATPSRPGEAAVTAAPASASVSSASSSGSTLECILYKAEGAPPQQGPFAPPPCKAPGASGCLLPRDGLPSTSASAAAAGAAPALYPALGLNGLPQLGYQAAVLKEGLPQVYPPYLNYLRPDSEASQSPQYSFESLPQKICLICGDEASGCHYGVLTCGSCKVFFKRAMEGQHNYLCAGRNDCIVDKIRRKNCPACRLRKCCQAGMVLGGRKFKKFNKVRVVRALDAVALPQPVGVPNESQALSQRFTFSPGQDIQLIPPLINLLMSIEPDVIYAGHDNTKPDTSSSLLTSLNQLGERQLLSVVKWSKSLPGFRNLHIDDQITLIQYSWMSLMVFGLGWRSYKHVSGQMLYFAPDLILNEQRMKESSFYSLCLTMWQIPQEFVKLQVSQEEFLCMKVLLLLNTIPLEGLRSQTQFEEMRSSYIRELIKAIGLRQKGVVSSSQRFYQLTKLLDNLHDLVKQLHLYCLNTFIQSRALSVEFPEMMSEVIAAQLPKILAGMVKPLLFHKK
Excerpt: The human recombinant receptor (HGR, HPR, HAR, HMR, HER) was used.
Human progesterone receptor (HPR):
The recombinant human progestogen receptor was obtained by the superexpression in a cell system of insects--Baculovirus, according to the methodology described by Webb et al (Journal of Methods in Cell and Molecular Biology, (1990) Vol. 2 No. 4, p. 173-188) and the application of which was described for the expression of human hormonal receptors, for example the human glucocorticoid receptor (Srinivasan et al, Molecular Endocrinology, (1990) Vol. 4 No. 2, p. 209-216.
The BaculoGold Transfection Kit (PharMingen, reference 21000K) was used to insert the cDNA fragment described by Kastner et al (The EMBO Journal, (1990), Vol. 9 No. 5, p. 1603-1614), containing the region coding for the human progestogen receptor and to prepare the corresponding recombinant virus. The recombinant virus obtained in this way was used to express the progestogen receptor in SF9 insect cells (ATCC CRL1711), according to the known methodology cited previously.
2×10^7 to 2.5×10^7 SF9 cells were cultured in a 175 ml "Falcon" flask in the TNM-FH medium supplemented with 10% fetal calf serum (FCS) and with 50 micrograms/ml of gentamycin. After infection, then incubation at 27° C. for 40 to 42 hours, the cells were taken up in 1 ml of lysis buffer (1), lysed by 2 cycles of freezing-thawing (-80° C./ 0° C.), then centrifuged at 4° C. for 30 minutes at 20,900 g. The supernatant, containing the recombinant human progestogen receptor, was stored in liquid nitrogen in quantities of 1 ml.
The supernatant was diluted at the time of use with 10 mM Tris buffer, 0.25M saccharose, HCl pH 7.4 containing 0.1% of gelatin and then incubated at 0° C. for 24 hours with a constant concentration (T) of tritiated 17α, 21-dimethyl-19-nor-Δ^4,9 pregnadiene-3,20-dione in the presence of increasing concentrations of either unlabelled progesterone (0-2500×10^-9 M), or the unlabelled product to be tested (1 to 25000×10^-9 M). The concentration of bound tritiated 17,21-dimethyl-19-nor-Δ^4,9 -pregnadiene-3,20-dione (B) was then measured in each incubate using the charcoal dextran adsorption technique.
Calculation of the relative bond affinity (RBA).
The following two curves were drawn: the percentage of bound tritiated hormone B/BO as a function of the logarithm of the concentration of unlabelled reference hormone or as a function of the logarithm of the concentration of unlabelled test product. The straight line of the following equation was determined: […]
The relative bond affinity (RBA) of the test product was determined by the equation: […]

[2] = system: endometrial proliferation (uterine lace); test: Progestomimetic activity: endometrial transformation in the rabbit (Clauberg-McPhail test); assay type: in vivo; design: key to Maximal activity on the uterine lace (McPhail index) / Average uterine lace (McPhail Index): McPhail scale 0–4 with 0.5 steps (endometrial proliferation); conditions: for Average uterine lace (McPhail Index): s/c, day 8 to day 11
Experimental: 2. --Determination of the progestomimetic activity of the products of the invention: Endometrial transformation in the rabbit. The animals used were impuberal female rabbits which were 40-45 days old. The animals were treated with estradiol (5 ug/0.2 ml/rabbit in solution of corn oil, 10% ethanol) by subcutaneous route from day 1 to day 5, then the product to be studied was administered from day 8 to day 11. On day 12, the animals were sacrificed and a median portion of each uterine cornua was removed from each animal and fixed in Bouin's liquid for histological study. After fixing, the samples were dehydrated, included, cut, mounted, the paraffin was removed and then the sample was stained with hemalum-eosin-saffron. […] Then, for each of the cornua, a semi-quantitative evaluation of the endometrial proliferation (uterine lace) was carried out by the McPhail scale from 0 to 4 with 0.5 intermediates and the two figures were averaged. Similarly, the degree of hypertrophy of the cornua was evaluated by the same scale. At higher magnification, morphological observations of the mucous membrane or the myometrium could possibly be formulated. The 1-OH metabolite (product A) was tested at doses of 10, 100, 1000 μg/kg by subcutaneous route as well as orally at a dose of 1000 μg/kg. The 6-OH metabolite (product B) was tested at doses of 100, 1000 and 10000 μg/kg subcutaneously. As a control, progesterone was administered at doses of 100 and 1000 μg/kg by subcutaneous route. The averages were produced for the uterine lace (McPhail Index).

RBA, Human progestogen receptor [1] | RBA, Human progestogen receptor ([1]; listed as product B) | Structure (SMILES) | Average uterine lace (McPhail Index) ([2]; rabbit, 0,01 mg/kg) | Average uterine lace (McPhail Index) ([2]; rabbit, 0,1 mg/kg) | minimal effective dose ([2]; Oryctolagus cuniculus, rabbit, note on this test, read-out: Dose from which progestomimetic activity starts) [µg/kg]
12 | moderate RBA | C[C@H](O)C(=O)[C@@]1(C)CC[C@H]2[C@@H]3C[C@@H](O)C4=CC(=O)CCC4=C3CC[C@@]21C [Product B, [6β, 17β-(S)]-6-hydroxy-17-(2-hydroxy-1-oxopropyl)-17-methyl-Δ^4,9-estradiene-3-one] | 1,4 | 2 | –
588 | – | C[C@H](O)C(=O)[C@@]1(C)CC[C@H]2[C@@H]3CCC4=CC(=O)CCC4=C3CC[C@@]21C [Trimegestone, [17β-(S)]-17-(2-hydroxy-1-oxopropyl)-17-methyl-Δ^4,9-estradiene-3-one, reference compound] | – | – | 1
